Measured values from BindingDB's records for PubMed 9223568 (Yamanouchi Pharmaceutical, 1997).
pKi: −log10 of the molar value. “And” between values parts separate entries of the source, which are not always exact repeats. Equal entries are not always repeated. Numbered stars: 1 amine (or outer) side, 2 acyl side, 3 side chain; on linkers, the order of the positions; unused ones are H or OH. Bridge positions count the residues as written; N and C are the ends. Peptide text beside a SMILES is read from it. X1 = O=C(CC1(S[*:2])CCCCC1)[*:1]

What was measured:
Vasopressin V1b receptor = target: T1, Vasopressin V1b receptor (Rattus norvegicus, UniProt P48974)
T1 sequence (P48974 whole entry): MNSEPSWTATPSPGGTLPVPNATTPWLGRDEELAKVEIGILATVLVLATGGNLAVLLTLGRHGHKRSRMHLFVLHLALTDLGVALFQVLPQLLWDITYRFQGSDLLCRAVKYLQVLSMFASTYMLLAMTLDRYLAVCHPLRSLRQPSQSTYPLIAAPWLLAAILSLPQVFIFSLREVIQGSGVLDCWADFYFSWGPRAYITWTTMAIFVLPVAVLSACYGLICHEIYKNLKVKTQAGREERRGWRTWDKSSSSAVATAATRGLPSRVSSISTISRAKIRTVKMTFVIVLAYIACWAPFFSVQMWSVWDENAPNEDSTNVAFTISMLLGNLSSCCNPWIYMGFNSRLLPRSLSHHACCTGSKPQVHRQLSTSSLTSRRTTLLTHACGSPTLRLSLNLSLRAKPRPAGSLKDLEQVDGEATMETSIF

Oxytocin receptor = target: T2, Oxytocin receptor (Rattus norvegicus, UniProt P70536)
T2 sequence (P70536 whole entry): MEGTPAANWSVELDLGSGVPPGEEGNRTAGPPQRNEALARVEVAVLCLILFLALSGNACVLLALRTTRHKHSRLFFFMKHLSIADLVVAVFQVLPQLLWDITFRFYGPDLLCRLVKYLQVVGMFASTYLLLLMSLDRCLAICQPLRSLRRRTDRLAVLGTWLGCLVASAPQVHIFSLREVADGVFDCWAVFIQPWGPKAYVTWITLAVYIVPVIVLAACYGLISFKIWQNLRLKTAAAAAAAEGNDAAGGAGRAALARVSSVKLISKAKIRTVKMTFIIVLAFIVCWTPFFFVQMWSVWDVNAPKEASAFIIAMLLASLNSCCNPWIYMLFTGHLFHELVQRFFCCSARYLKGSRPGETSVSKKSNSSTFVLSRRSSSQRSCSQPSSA

Vasopressin V1a receptor = Vasopressin V1a receptor (Rattus norvegicus, UniProt P30560)
Vasopressin V2 receptor = Vasopressin V2 receptor (Rattus norvegicus, UniProt Q00788)
Vasopressin V2 receptor, sequence (Q00788 whole entry): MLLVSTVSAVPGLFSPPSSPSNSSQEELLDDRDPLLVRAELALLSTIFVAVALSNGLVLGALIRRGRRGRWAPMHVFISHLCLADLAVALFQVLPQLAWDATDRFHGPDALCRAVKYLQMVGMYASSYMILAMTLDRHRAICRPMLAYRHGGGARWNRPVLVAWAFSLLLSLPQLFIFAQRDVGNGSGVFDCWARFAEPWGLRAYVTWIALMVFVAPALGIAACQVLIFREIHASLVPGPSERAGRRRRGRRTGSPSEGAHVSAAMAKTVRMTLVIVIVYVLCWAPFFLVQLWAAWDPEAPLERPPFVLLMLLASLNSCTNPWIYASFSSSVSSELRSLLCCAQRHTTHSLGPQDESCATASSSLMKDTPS

Vasopressin V1a receptor, sequence (P30560 whole entry): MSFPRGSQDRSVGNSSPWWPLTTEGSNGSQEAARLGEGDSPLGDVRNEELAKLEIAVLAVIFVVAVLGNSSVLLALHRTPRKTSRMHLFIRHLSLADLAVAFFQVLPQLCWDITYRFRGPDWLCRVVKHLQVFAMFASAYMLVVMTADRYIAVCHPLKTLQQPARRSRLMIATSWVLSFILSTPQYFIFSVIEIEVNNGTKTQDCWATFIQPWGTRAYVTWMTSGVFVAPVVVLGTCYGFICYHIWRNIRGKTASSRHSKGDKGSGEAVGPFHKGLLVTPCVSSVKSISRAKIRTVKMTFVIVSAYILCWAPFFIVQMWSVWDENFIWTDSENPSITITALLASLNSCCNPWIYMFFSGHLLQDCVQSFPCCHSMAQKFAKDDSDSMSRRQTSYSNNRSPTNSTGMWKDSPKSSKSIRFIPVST

SMILES | pKi (Vasopressin V1b receptor) | pKi (Oxytocin receptor) | pKi (Vasopressin V1a receptor) | pKi (Vasopressin V2 receptor)
Cc1ccccc1C(=O)Nc1ccc(C(=O)N2CCCC(N(C)C)c3ccccc32)cc1 (stereo not given) | < 5.00 | 5.81 | 6.63 | –
Cc1nc2c([nH]1)-c1ccccc1N(C(=O)c1ccc(NC(=O)c3ccccc3-c3ccccc3)cc1)CC2 [CONIVAPTAN] | < 5.00 | 7.35 | 9.32 and 9.62 | 8.52 and 9.42
CC(=O)NCCCOc1ccc(C(=O)N2CCC(N3C(=O)CCc4ccccc43)CC2)cc1 [N-(3-(4-(4-(2-oxo-3,4-dihydroquinolin-1(2H)-yl)piperidine-1-carbonyl)phenoxy)propyl)acetamide] | < 5.00 | 6.48 | 7.63 and 7.83 | < 5.00
NC(=O)CC[C@@H]1NC(=O)[C@H](Cc2ccccc2)NC(=O)[C@H](Cc2ccc(O)cc2)NC(=O)CCSSC[C@@H](C(=O)N2CCC[C@H]2C(=O)N[C@H](CCCN=C(N)N)C(=O)NCC(N)=O)NC(=O)[C@H](CC(N)=O)NC1=O [NSC_64759] | – | – | – | 8.71 and 8.10
COc1ccc(C[C@@H]2NC(=O)CC3(CCCCC3)SSC[C@@H](C(=O)N3CCC[C@H]3C(=O)N[C@@H](CCCN=C(N)N)C(=O)NCC(N)=O)NC(=O)[C@H](CC(N)=O)NC(=O)[C@H](CCC(N)=O)NC(=O)[C@H](Cc3ccccc3)NC2=O)cc1 [NSC_105077] (Y(Me)FQNCPRG-NH2; linker N-5 via X1) | 7.42 | – | 8.75 and 9.48 | 7.40 and 7.00
